Source: patent US20240024403A1, “Compositions and Methods for Managing Weight” (Unigen, Inc., priority 2012, published 2024)

Columns and labels:
leptin = assay: Plasma leptin level in DIO mice (ELISA); type: in vivo
Description: (§1) Obese mice were treated with various three component compositions to test the anti-obesity and appetite effects of such compositions. Three component Composition 1 (Magnolia:Morus:Yerba Mate) produced according to the Example 38, three component Composition 2 (Magnolia:Morus:Mutamba) produced according to the Example 42, three component Composition 3 (Morus: Rosemary:Yerba Mate) produced according to the Example 39, and three component Composition 9 (Morus:Rosemary:Areca) produced according to the Example 41, were each separately administrated orally to DIO mice as described in the Example 48. The high fat diet (HFD) mice were divided into multiple treatment groups with a total of 10 animals per group. The mice were treated with one of the following: Composition 1 (1300 mg/kg/day), Composition 2 (1300 mg/kg/day), Composition 3 (1700 mg/kg/day), or Composition 9 (1700 mg/kg/day). Control groups included a normal diet group given vehicle only (ND, negative control), a high fat diet group given vehicle only (HFD, negative control), an orlistat group (ORI, 40 mg/kg, 2 times/day, positive control), and a sibutramine group (10 mg/kg, 1 time/day, positive control). Body weight and feed intake were measured daily for 2 weeks after treatment and then twice a week until the end of the 7 week study. At week 2 and week 7 after treatment, mice were fasted for 16 hours and then five animals were examined to measure plasma concentrations of leptin and ghrelin. Leptin and ghrelin levels were measured by using commercial ELISA kits specific for leptin or ghrelin (Millipore Co., Billerica, MA) according to the manufacturer's instructions. Measurements were taken using a microplate reader (Victor™ X3, PerkinElmer Inc., USA) and analyzed with PerkinElmer 2030 workstation computer software.

CCK peptide = CCK peptide levels in DIO mice (CCK ELISA); type: in vivo; conditions: mice on high fat diet; after 7 weeks of administering; % ± SD
Description: Therefore, the effect on CCK peptide levels in mice from treatment with Composition 2 (Magnolia:Morus:Mutamba), produced according to the Example 42, or Composition 3 (Morus:Rosemary:Yerba Mate), produced according to the Example 39, was examined to determine the extent to which weight gain and/or appetite were affected through this peptide hormone pathway. Briefly, CCK peptide levels were measured after 7 weeks of administering Compositions […] and 3 to mice on a high fat diet as described in Example 48. Negative controls include mice on a normal diet (NC) and mice on a high fat diet (HFD), each group administered vehicle only. The positive controls were orlistat and sibutrimine. CCK levels were detected using a CCK ELISA assay kit according to the manufacturer's instructions (Abnova, Taipei City, Tiawan). Measurements were performed using microplate reader Victor™ X3 (PerkinElmer Inc., Waltham, MA) and computer software on the PerkinElmer 2030 workstation.

[1] = High fat diet induced obesity (DIO) rat model; type: in vivo, Spraue-Dawley rats; conditions: for Total Body Weight: in g (unit assumed)
Description: Male Spraue-Dawley rats, age 4-6 weeks (OrientBio, Inc.; Seongnam, Korea) were housed individually in Polycarbonate cages in a room with a 12 hr:12 hr light-dark cycle and an ambient temperature of 24° C. All the rats were fed a commercial chow diet for 1 week after arrival in the animal facility. Rats were then divided into normal and obesity groups and fed with normal diet (ND) and high fat diets (HFD) respectively. The HFD group was divided into multiple treatment groups: a high fat diet vehicle group (HFD), an orlistat (purchased as OTC drug Alli®) positive control treatment group (ORI, 80 mg/kg of animal weight, 2 times/day). In some examples, sibutramine was used as a positive control (SIB, 3 mg/kg for rat studies and […] for mice studies).
Body weight was measured once or twice per week and feed intake was measured twice per week. Body weight gain was determined for each study group by measurement of the body weight difference for each study group between each successive week of the study. At the end of the experimental period, following a 12-h fasting period, the animals were anesthetized with ether, and blood was drawn from the abdominal vein. Liver and kidney and adipose tissues (epididymal, retroperitoneal, perirenal adipose tissues) were removed from each animal, rinsed with physiological saline, and weighted. Serum concentrations of glucose, total cholesterol and LDL-cholesterol were determined using automatic analyzer (INTEGRA 400, Roche, Germany). Statistical significance of test results was performed by Student's t-test.

ghrelin = assay: Plasma active ghrelin level in DIO mice (ELISA); type: in vivo
Description: as §1

[2] = DIO mice plasma, 2-week treatment
[3] = DIO mice plasma, 7-week treatment
[4] = SIB 3 mg/kg, DIO rats, blood at end of study
[5] = SIB 3 mg/kg, rats fed a high fat diet
[6] = SIB 3 mg/kg, rats fed a high fat diet, 42 days

CC(C)CC(N(C)C)C1(c2ccc(Cl)cc2)CCC1 (centres unmarked) [SIB, sibutramine]
Leptin (ng/ml) 2-week (leptin; [2]): 17.0 ± 0.43 ng/mL | Leptin (ng/ml) 7-week (leptin; [3]): 20.4 ± 0.00 ng/mL | plasma leptin level vs HFD group (leptin; week 2 and week 7, Composition 2 1300 mg/kg/day, orlistat 40 mg/kg 2 times/day, sibutramine 10 mg/kg 1 time/day): somewhat reduced leptin level after 2 weeks of treatment | % CCK binding (CCK peptide): 12.3 ± 1.6% | Fasting Glucose [1, 4]: 136.00 mg/dL | T-chol [1, 4]: 106.60 mg/dL | Triglyceride [1, 4]: 41.10 mg/dL | Fat Deposit Weight: Epididymal Fat [1, 5]: 6.698 | Fat Deposit Weight: Perirenal Fat [1, 5]: 1.562 | Fat Deposit Weight: Retroperitoneal Fat [1, 5]: 3.190 | Fat Deposit Weight: Total Fat [1, 5]: 11.450 | Food Efficiency Ratio (FER) [1, 6]: 0.155 | Food Intake [1, 6]: 13.880 g/day | Weight Gain [1, 6]: 2.160 g/day | Total Body Weight ([1]; day 0, SIB 3 mg/kg, DIO rats): 364.15 | Total Body Weight ([1]; day 1, SIB 3 mg/kg, DIO rats): 368.06 | Weight Gain ([1]; day 1 vs day 0, SIB 3 mg/kg, DIO rats): 3.91 | Total Body Weight ([1]; day 2, SIB 3 mg/kg, DIO rats): 356.78 | Weight Gain ([1]; day 2 vs day 0, SIB 3 mg/kg, DIO rats): −7.37 | Total Body Weight ([1]; day 3, SIB 3 mg/kg, DIO rats): 357.21 | Weight Gain ([1]; day 3 vs day 0, SIB 3 mg/kg, DIO rats): −6.94 | Total Body Weight ([1]; day 4, SIB 3 mg/kg, DIO rats): 358.78 | Weight Gain ([1]; day 4 vs day 0, SIB 3 mg/kg, DIO rats): −5.37 | Total Body Weight ([1]; day 7, SIB 3 mg/kg, DIO rats): 368.11 | Weight Gain ([1]; day 7 vs day 0, SIB 3 mg/kg, DIO rats): 3.96 | Total Body Weight ([1]; day 10, SIB 3 mg/kg, DIO rats): 377.69 | Weight Gain ([1]; day 10 vs day 0, SIB 3 mg/kg, DIO rats): 13.54 | Total Body Weight ([1]; day 14, SIB 3 mg/kg, DIO rats): 388.70 | Weight Gain ([1]; day 14 vs day 0, SIB 3 mg/kg, DIO rats): 24.55 | Total Body Weight ([1]; day 18, SIB 3 mg/kg, DIO rats): 395.38 | Weight Gain ([1]; day 18 vs day 0, SIB 3 mg/kg, DIO rats): 31.23 | Total Body Weight ([1]; day 21, SIB 3 mg/kg, DIO rats): 407.06 | Weight Gain ([1]; day 21 vs day 0, SIB 3 mg/kg, DIO rats): 42.91 | Total Body Weight ([1]; day 24, SIB 3 mg/kg, DIO rats): 414.91 | Weight Gain ([1]; day 24 vs day 0, SIB 3 mg/kg, DIO rats): 50.75 | Total Body Weight ([1]; day 28, SIB 3 mg/kg, DIO rats): 425.99 | Weight Gain ([1]; day 28 vs day 0, SIB 3 mg/kg, DIO rats): 61.84 | Total Body Weight ([1]; day 31, SIB 3 mg/kg, DIO rats): 432.32 | Weight Gain ([1]; day 31 vs day 0, SIB 3 mg/kg, DIO rats): 68.17 | Total Body Weight ([1]; day 35, SIB 3 mg/kg, DIO rats): 442.55 | Weight Gain ([1]; day 35 vs day 0, SIB 3 mg/kg, DIO rats): 78.40 | Total Body Weight ([1]; day 38, SIB 3 mg/kg, DIO rats): 447.66 | Weight Gain ([1]; day 38 vs day 0, SIB 3 mg/kg, DIO rats): 83.51 | Total Body Weight ([1]; day 42, SIB 3 mg/kg, DIO rats): 454.96 | Weight Gain ([1]; day 42 vs day 0, SIB 3 mg/kg, DIO rats): 90.81 | blood biochemistry parameters vs HFD group ([1]; sibutramine 3 mg/kg): no statistically significant changes compared to the HFD group for any of the measured endpoints | body weight gain vs HFD group ([1]; sibutramine 3 mg/kg): statistically significant decreases in body weight gains from day 2 to completion of the study on day 42 | organ and fat pad weights vs HFD group ([1]; sibutramine 3 mg/kg): statistically significant decreases in all categories of fat measurement | total body weight vs HFD group ([1]; sibutramine 3 mg/kg): statistically significant reduction in body weight at day 2 through the remainder of the study (day 42) | weight gain per day, food intake per day, food efficiency ratio (FER) vs HFD group ([1]; sibutramine 3 mg/kg): statically lower values than the HFD group for Weight Gain per day, Food Intake per day, and Food Efficiency Ratio | Active Ghrelin (pg/ml) 2-week (ghrelin; [2]): 1001.3 pg/mL | Active Ghrelin (pg/ml) 7-week (ghrelin; [3]): 600.1 pg/mL | active ghrelin level vs HFD group (ghrelin; week 2 and week 7, orlistat 40 mg/kg 2 times/day, sibutramine 10 mg/kg 1 time/day): no effect on active ghrelin levels at either week 2 or week 7
